# In PMC12624573, “The antigen presentation landscape of cytokine-stressed human pancreatic islets” (Cell reports, 2025):
# Test system: CD8+ T cells from PBMC
# Test: IFN-γ ELISpot, PBMC-derived in vitro expanded CD8+ T cell lines
# Format: cell-based, human
# Design: key to T cell recognition by PBMC from a T1D donor: E: T cell recognition by PBMC from a T1D donor was tested and verified; see Figure 5
# Conditions: A2 Set Peptides; PBMC T cell lines; responding donors/donors tested
Sequence,T1D Donor T cell response,non-T1D Donor T cell response
"GLDDIKDLKV [peptide 112, 15]",3/4,0/2
"AQIALQPAL [compound 131, 17]",0/4,0/2
"ALDGPPIKV [compound 80, 11]",1/5,0/2
"SLLQGSPHL [compound 122, 16]",0/4,0/2
"KQFPEVIKY [compound 90, 12]",0/4,0/2
"GLDRLNVTV [peptide 101, 14]",4/4,0/2
"RLSDAQIYV [compound 103, 14]",0/4,0/2
"VLAPRVLRA [compound 126, 16]",0/4,0/2
"HLMDQPLSV [compound 108, 14]",0/4,0/2
"AMFDQSQIQEF [compound 116, 15]",1/4,0/2
"SLIGHLQTL [compound 95, 13]",1/4,0/2
"ALANHLIKV [compound 96, 13]",2/4,0/2
"HQNQLLSSL [compound 143, 18]",0/4,0/2
"LLDVPTAAV [compound 81, 11]",1/5,0/2
"LLDEEISRV [compound 84, 11]",0/4,0/2
"HLKALTSEL [compound 114, 15]",0/5,0/2
"ALLDVTPKAV [compound 140, 18]",0/4,0/2
"YLHSQVVSV [compound 139, 18]",0/4,0/2
"RLDDLKMTV [compound 82, 11]",1/5,0/2
"ELNPKILAL [compound 100, 13]",0/4,0/2
"AQLENPAAV [compound 97, 13]",0/4,0/2
"FLIRESETL [compound 109, 14]",1/4,0/2
"KVDEAVAVL [compound 83, 11]",0/4,0/2
"HLANIVERV [compound 141, 18]",0/4,0/2
"QLSDVAEKL [compound 128, 17]",0/4,0/2

Sequence,T1D Donor T cell response,non-T1D Donor T cell response
HLTPSPVPV [compound 121],0/5,0/2
"VIANEIEKV [compound 88, 12]",0/5,0/2
"RYLEQLHQL [compound 135, 17]",0/4,0/2
"ALYDNVEKL [compound 89, 12]",0/4,0/2
"VLHEGTNFV [compound 104, 14]",0/4,0/2
"YLKHRLIVV [compound 134, 17]",0/4,0/2
"FIASKGVKLV [compound 86, 12]",0/5,0/2
"FLKEPALNEA [compound 124, 16]",0/4,0/2
"ALMEAIHSA [compound 93, 13]",1/4,0/2
"KLLDPEDVAVQL [compound 142, 18]",0/4,0/2
"ALLETVNRL [compound 99, 13]",0/5,0/2
"KLQELNYNL [compound 132, 17]",0/4,0/2
"ALLDQALSNA [compound 111, 15]",0/4,0/2
"SLAEGLRTV [compound 120, 16]",0/4,0/2
"TLVEAIKQV [compound 113, 15]",,0/2
"KQMEQISQF [compound 137, 18]",0/4,0/2
"LQNPDLVSL [compound 119, 16]",0/4,0/2
"YINEKNVAL [compound 105, 14]",0/4,0/2
"RVIGTLEEV [compound 125, 16]",0/4,0/2
"LIQDRVAEV [compound 106, 14]",1/5,0/2
"LLSDTVQHL [compound 136, 17]",0/4,0/2
"YLLEKSRVV [compound 118, 15]",0/4,0/2
AQTEVIATL [compound 94],0/5,0/2
"RVAEVQQVL [compound 107, 14]",0/5,0/2

# Same assay, conditions: HPAP-A2 Pool Peptides; PBMC T cell lines; responding donors/donors tested
Sequence,T1D Donor T cell response,non-T1D Donor T cell response
IIVDIFHGL [compound 170],0/4,0/4
VLAFLVHEL [compound 156],1/5,0/4
ALKPLAAAL [compound 169],0/4,0/4
KLLESFKI [compound 160],0/4,0/4
ALLETVNRL [compound 162],0/4,0/4
KQFPEVIKY [compound 157],0/5,0/4
TAISRIYTV [compound 158],0/4,0/4
FTNHFLVEL [compound 165],0/4,0/4
FLIEEIERL [compound 161],0/4,0/4

# Same assay, conditions: MHC-I peptides; superscript E on the peptide; F = verified with C1R-A2 cells
row,Sequence,T cell recognition by PBMC from a T1D donor
1,TLDGSLHAV,TLDGSLHAV ^ E
2,GLDRLNVTV,GLDRLNVTV ^ E
3,GLDDIKDLKV,GLDDIKDLKV ^ E
4,RLDDLKMTV,RLDDLKMTV ^ E
5,RSAAVLALL,"RSAAVLALL ^E,F"
6,SLIGHLQTL,SLIGHLQTL ^ E

# Same assay, conditions: PTM and unmodified native Pool Peptides (pool PTM 1), 9-mer peptides; PBMC T cell lines; responding donors/donors tested
Sequence,T1D Donor T cell response,non-T1D Donor T cell response
"QADFAIEAL [compound 150, non-modified native peptide, pool PTM A2]",0/4,0/3

# Same assay, conditions: SEC (Secretory) A2 Peptides Set; PBMC T cell lines; responding donors/donors tested
row,Sequence,T1D Donor T cell response
1,"GSHLVEALY [compound 172, secretory hormone eluted peptide, pool SEC A2]",0/4

# Same assay, conditions: T1D donors, PBMC-derived lines (Figure 5J)
row,Sequence,Number of donors whose CD8 T cells recognized the peptide (IFN-γ ELISpot)
1,"GLDDIKDLKV [peptide 112, 15]",three of the donors
2,"GLDRLNVTV [peptide 101, 14]",all four donors
